# Patent US20160084855A1, “Compositions and Methods for Modulation and Detection of Immune and Inflammatory Responses” (UNIVERSITY OF CONNECTICUT, priority 2013, published 2016)
# Several values for one entry are separate records, joined by “and”; a condition that tells them apart may be missing. Equal entries are not always repeated.
# How the values were obtained:
# [1] = tested on: spinal cord CD4+ and Foxp3+ T cells; assay: Flow cytometry of spinal cord mononuclear cells of mice with EAE; assay type: in vivo, mouse
# Description: Spinal cord mononuclear cells were derived as previously described in Korn et al. “Myelin-specific regulatory T cells accumulate in the CNS but fail to control autoimmune inflammation” Nat. Med. 13:423-431 (2007) and stained for CD4 (FITC α-CD4 (GK1.5) BD Pharmingen) and Foxp3 (APC α-FoxP3 (FJK-16s; E-Bioscience), or stimulated in culture for 4 hrs with phorbol myristyl acetate and ionomycin prior to staining for Thy1.2 (PE-Cy7 anti-CD 90.2; E-Biosciences) and intracellular IFNγ (APC αIFNγ; BD Pharmingen) and IL-17 (Alexa Fluor 488 α-IL-17A; BD Pharmingen).
# To characterize mechanisms by which PE DHC may enhance autoimmune disease in vivo, the experimental studies tested whether the PE DHC-mediated enhancement of EAE was associated with alterations in T cell populations at a site of disease. WT mice were immunized with the usual EAE-inducing protocol and treated on Day 0 with EtOH or PE DHC (250 ng i.p.). Within 5 days after onset of EAE, mice were sacrificed and exsanguinated, their spinal cords were removed, and the mononuclear cells were derived from the spinal cords. These cells were analyzed directly for CD4 and Foxp3 expression by flow cytometry or were stimulated with PMA and ionomycin for 4 hours and then, gating on Thy1.2+ cells, analyzed for intra-cellular interferon gamma (IFNγ) and IL-17 by flow cytometry. […] However, the percentage of CD4+ T cells within the total mononuclear cell populations derived from the spinal cords of PE DHC-treated mice was, on average, greater than the percentage in EtOH-treated mice (as illustrated in Table 2). […] The mean percentage of spinal cord cells that were CD4+ was 41% in EtOH-treated mice and, on average, 6.7% of these were Foxp3+. In contrast, the mean percentage of spinal cord cells that were CD4+ T cells was 52% in PE DHC-treated mice and, on average, 4.3% of these were Foxp3+. It has been reported in Korn et al. “Myelin-specific regulatory T cells accumulate in the CNS but fail to control autoimmune inflammation” Nat. Med. 13:423-431 (2007) that the percentage of spinal cord CD4+ Foxp3+ T cells increased as the disease progressed. […] Based on this observation, it was unlikely that the decrease in the percentage of Foxp3+ in PE-DHC-treated mice was related to differences in disease duration.
# bone marrow DCs (BMDCs) = assay: Stimulation of bone marrow dendritic cells, IL-6 ELISA and surface activation markers; assay type: cell-based, mouse; conditions: for IL-6 secretion: plate-bound LPS 1 μg, MMP 10 μg, PE DHC 2.5 μg, 18 hrs
# Protocol: Bone marrow cells from C57BL/6 and TLR2^−/− mice were cultured at 2×10^5 cells/ml in RPMI containing 10% FCS, 2-ME, and 20 ng/ml recombinant murine GM-CSF for 9 days. Bone marrow DCs (BMDCs) were harvested at Day 9 and were greater than 80% CD11c+. LPS (1 μg), MMP (10 μg) (a bacterial lipoprotein and known TLR-2 ligand (Bachem H-9460), PE DHC (2.5 μg) or 70% EtOH, all in 20 ul volumes, were allowed to dry in the wells of a 24-well plate overnight prior to the addition of BMDCs. BMDCs were cultured in the ligand-bound 24-well plates at 1×10^6 cells/ml in RPMI containing GM-CSF. After 18 hrs, culture supernatants were harvested and tested for IL-6 via ELISA.
# The effects of PE DHC on antigen presenting cell (APC) activation in vitro were examined Dendritic cells (BMDCs) (>85% CD11c+) were derived from the bone marrow of WT or TLR2^−/− mice and cultured either alone or with EtOH, LPS, MMP (a TLR2 ligand), or PE DHC. After 18 hrs supernatants were assayed for IL-6. […] BMDCs were also assayed for expression of the surface activation markers B7.2 and MHC class II.
# [2] = tested on: naïve CD4+CD25− T cells with T cell-depleted splenocytes (Tds); assay: In vitro generation of Th17 T cells; assay type: cell-based, mouse; conditions: PE DHC 20 μg/ml sonicated liposomes; WT or TLR2−/− Tds; anti-CD3, GM-CSF, TGF-β; 5 days
# Protocol: CD4+CD25− T cells (Teff) were derived from WT mice using magnetic bead purification (Miltenyi Biotec, Auburn, Calif.). T cell-depleted splenocytes (Tds) were derived from WT or TLR2^−/− mice using magnetic bead purification followed by irradiation (2600R). Teff (0.25×10^6/well) and Tds (0.75×10^6/well) were cultured in 24-well plates with anti-CD3 antibody (1 μg/ml), GM-CSF (20 ng/ml) (Pierce Inc., Thermo Fisher Scientific, Rockford, Ill.) and recombinant TGF-β (2 ng/ml) (R&D). In addition, LPS (2 μg/ml), MMP (5 μg/ml) or P. gingivalis PE DHC (20 μg/ml of sonicated liposome preparations) were added to wells to stimulate the secretion of IL-6. Cultures were harvested after 5 days, stimulated in culture for 4 hrs with phorbol myristyl acetate and ionomycin and stained for Thy1.2, intracellular IFNγ, and IL-17 and analyzed by FACS after gating on Thy 1.2+ cells.
# PE DHC's ability to induce IL-6 secretion was characterized by testing its ability to induce Th17 T cell generation from cultures of naïve CD4+ CD25-T cells activated in the presence of APCs (T cell depleted splenocytes; Tds) and TGF-β. See Bettelli et al. “T(H)-17 cells in the circle of immunity and autoimmunity” Nat. Immunol. 2007, 8:345-350.
substance,measurement,setting,value
phosphoethanolamine dihydroceramide [PE DHC],"Total number of mononuclear cells obtained from the spinal cords, versus EtOH","[1]; WT mice, PE DHC 250 ng i.p.",no significant difference
same,"Percentages of spinal cord CD4+ T cells staining for intra-cellular IFNγ or IL-17, versus EtOH","[1]; WT mice, PE DHC 250 ng i.p., PMA and ionomycin 4 hours",not significantly different
same,DISEASE GRADE,"[1]; individual WT mice at sacrifice, PE DHC 250 ng i.p. Day 0",3.3 (2×) and 3.5 and 2.9 (2×) and 3.0
same,% CD4+ in spinal cord,"[1]; individual WT mice, PE DHC 250 ng i.p. Day 0, 1-5 days after onset of EAE, of total mononuclear cells",72.00% and 38.00% and 68.86% and 49.54% and 40.83% and 46.50%
same,% Foxp3+ in spinal cord,"[1]; individual WT mice, PE DHC 250 ng i.p. Day 0, after gating on CD4+ T cells",4.53% and 7.52% and 2.75% and 3.45% and 3.21% and 4.27%
same,IL-6 secretion,bone marrow DCs (BMDCs); TLR2−/− BMDCs,did not result in IL-6 secretion
same,IL-6 secretion,bone marrow DCs (BMDCs); WT BMDCs,levels of IL-6 secretion that were almost equivalent to that seen with LPS
same,Expression of surface activation markers B7.2 and MHC class II,bone marrow DCs (BMDCs); WT and TLR2−/− BMDCs,increased MHC II and B7.2 expression on WT but not TLR2^−/− BMDCs
same,Generation of Th17 T cells,[2],resulted in the generation of Th17 T cells in cultures containing WT but not TLR2^−/− Tds
